Assay results as given in patent publication US20230149510A1, “METHOD FOR ALLEVIATING ARTHRITIS USING EPIDERMAL GROWTH FACTOR” (Lovin BioMed Co., Ltd., priority 2021, published 2023).

Tested on: TNF-α, IL-1β, IL-6, IL-17A, IFN-γ and IL-8 in sole tissue, CII-induced RA
Test: Inflammatory markers in sole tissue (ELISA), collagen-induced RA
Format: in vivo, DBA/1 mice
Details: mouse sole tissue
Experimental: 2 mg/mL of a Chick type II collagen (CII) solution (Chondrex Inc., Cat. No. 20012) (in 10 mM acetic acid) was mixed with complete Freund's adjuvant (Sigma Aldrich, Cat. No. F5881-10ML) at a ratio of 1:1 (v/v), so as to obtain a first CII emulsion. 2 mg/mL of a Chick type CII solution was mixed with incomplete Freund's adjuvant (ChemCruzx, Cat. No. sc-24648) at a ratio of 1:1 (v/v), so as to obtain a second CII emulsion.
The female DBA/1 mice were divided into five groups, including one normal control group, one pathological control group, one comparative group, and two experimental groups (i.e., experimental groups 1 to 2) (n=6 mice in each group). 200 μL of the first CII emulsion was injected subcutaneously into the tail of the respective mouse of the pathological control group, the comparative group, and the two experimental groups. The mice were subjected to a boost injection using 200 μL of the second CII emulsion on the 21st day after the initial immunization, so as to induce the occurrence of RA. In addition, the rats of the normal control group were injected with an adjuvant solution (in PBS).
After completion of the boost injection, the respective mouse in the comparative group was intraperitoneally injected with 100 μL of 1% HA, the respective mouse in the experimental group 1 was intraperitoneally injected with 100 μL of the EGF solution (containing 20 μg/g EGF) prepared in section C of Example 1, the respective mouse in the experimental group 2 was intraperitoneally injected with 100 μL of the mixture solution (containing 20 μg/g EGF) prepared in section C of Example 1. Each mouse was administered once daily for a total period of 20 days.
After completion of the evaluation of RA severity as described in section C of this example, the mice in each group were sacrificed by virtue of 95% CO2 asphyxiation, and the knee joint tissue of the hind leg and the sole tissue were obtained from each mouse carcass. The knee joint tissue of the hind leg of each mouse was subjected to histological sectioning, hematoxylin-eosin staining, and microscopic observation in sequence according to the methods described in section F of Example 1.
100 mg of the sole tissue of each mouse obtained in section D of this example was subjected to a freezing treatment with liquid nitrogen, followed by grinding. The resultant ground tissue was mixed with 1 mL of a tissue lysis buffer (Gold Biotechnology, Inc., Cat. No. GB-181-100) (containing protease inhibitor cocktail), followed by determining the contents of TNF-α, IL-1β, IL-6, IL-17A, IFN-γ, and IL-8 respectively using a TNF-α ELISA kit (BioLegend, Cat. No. 430904), an IL-1β ELISA kit (BioLegend, Cat. No. 432604), an IL-6 ELISA kit (BioLegend, Cat. No. 431304), an IL-17A ELISA kit (BioLegend, Cat. No. 432504), an IFN-γ ELISA kit (BioLegend, Cat. No. 430807), and an IL-8 ELISA kit (MyBioSource, Cat. No. MBS261967) in accordance with the manufacturer's instructions.
The data thus obtained were analyzed according to the method described in section 1 of “General Procedures”.

EGF: Epidermal growth factor (Cat. No. 02-108, Joycom Bio-chem) dissolved in PBS, 20 μg/g EGF; given to experimental group 1 (NSDSECPLSHDGYCLHDGVCMYIEALDKYACNCVVGYIGERCQYRDLKWWELR; UniProt P01133 971-1023, looked up)
content of IL-1β (FIG. 8): apparently or significantly lower than those determined in the pathological control group | content of IL-6 (FIG. 8): apparently or significantly lower than those determined in the pathological control group | content of TNF-α (FIG. 8): apparently or significantly lower than those determined in the pathological control group | content of IFN-γ (FIG. 9): apparently or significantly lower than those determined in the pathological control group | content of IL-8 (FIG. 9): apparently or significantly lower than those determined in the pathological control group | content of IL-17A (FIG. 9): apparently or significantly lower than those determined in the pathological control group
